In patent US20220040123A1, “ANTI-HELICOBACTER FOOD COMPOSITION COMPRISING BETA-CARYOPHYLLENE” (priority 2018, published 2022):

Key:
[1] = tested on: flhA, flaA, flaB and flgE genes; test: RT-PCR of flagella-associated genes of H. pylori; format: cell-based, Helicobacter pylori; conditions: 31.25-500 μg/ml
Protocol: In order to evaluate the effect of beta-caryophyllene treatment on the inhibition of flagella of H. pylori, changes in the expression of the flhA, flaA, flaB and flgE genes which constitute the flagella or are associated with the function of the flagella were examined, and the results are shown in FIG. 9. Specifically, H. pylori was treated with beta-caryophyllene at concentrations of 31.25, 62.5, 125, 250 and 500 μg/ml, and expression of the genes was analyzed by RT-PCR.

[2] = tested on: virB2, virB4, virB5, virB6, virB7, virB8, virB9, virB10 and virD4 genes; test: RT-PCR of type IV secretion system (T4SS) genes; format: cell-based, Helicobacter pylori; conditions: 31.25-500 μg/ml
Protocol: In order to evaluate the inhibitory effect of beta-caryophyllene against the CagA toxin injection ability of Helicobacter pylori, expression of virB2, virB4, virB5, virB6, virB7, virB8, virB9, virB10 and virD4 genes associated with the type IV secretion system (T4SS) structure required to inject the CagA toxin into a host cell was analyzed, and the results are shown in FIG. 11. Specifically, Helicobacter pylori was treated with beta-caryophyllene at concentrations of 31.25, 62.5, 125, 250 and 500 μg/ml, and expression of the genes was analyzed by RT-PCR.

[3] = tested on: dnaA, dnaN, holB and polA genes; test: Expression of DNA synthesis-related genes of H. pylori; format: cell-based, Helicobacter pylori; conditions: 31.25-500 μg/ml
Protocol: DNA replication is essential for the proliferation of Helicobacter pylori, and RNA synthesis (transcription process) is a process essential for protein synthesis in organisms. Thus, unless normal RNA synthesis occurs, normal life activity cannot be maintained. Accordingly, in order to evaluate the inhibitory effect of beta-caryophyllene against the proliferation of H. pylori, H. pylori was treated with beta-caryophyllene at concentrations of 31.25, 62.5, 125, 250 and 500 μg/ml, and changes in the expression of the DNA synthesis-related genes dnaA, dnaN, holB and polA were analyzed, and the results are shown in FIG. 10.

[4] = tested on: sabA, hopZ, hpaA, alpA, alpB and babA genes; test: RT-PCR of genes involved in the adhesion of H. pylori; format: cell-based, Helicobacter pylori; conditions: 31.25-500 μg/ml
Protocol: In order to evaluate the effect of beta-caryophyllene against the adhesion function of H. pylori, changes in the expression of the genes sabA, hopZ, hpaA, alpA, alpB and babA involved in the adhesion of H. pylori were analyzed, and the results are shown in FIG. 8. Specifically, H. pylori was treated with beta-caryophyllene at concentrations of 31.25, 62.5, 125, 250 and 500 μg/ml, and the expression of the genes was analyzed by RT-PCR.

[5] = tested on: H. pylori; test: Minimum growth inhibitory concentration test (absorbance at 650 nm after 72 hours); format: cell-based, Helicobacter pylori (ATCC 49503); conditions: Mueller Hinton broth with 10% bovine serum, absorbance 650 nm
Protocol: For H. pylori culture, an H. pylori (ATCC 49503) strain was inoculated on a Brucella agar medium containing 10% bovine serum and antibiotics (vancomycin, esfsuldin, trimethoprim, and amphotericin B), and cultured in an anaerobic incubator which maintains 10% CO2, 5% O2, 85% N2, and 97% or more humidity, at 37° C. for 72 hours. For a minimum growth inhibitory concentration test, each of 7.81, 15.63, 31.25, 62.5, 125, 250 and 500 μg and 1, 2 and 4 mg of beta-caryophyllene was added to a medium obtained by adding 10% bovine serum to Mueller Hinton broth, and then cultured in a CO2 incubator at a relative humidity of 100% for 72 hours. Each of the bacterial solutions cultured for 72 hours was measured for absorbance at 650 nm using a spectrophotometer to determine the minimum inhibitory concentration (MIC) of beta-caryophyllene, and the results are graphically shown in FIG. 2.

[6] = tested on: Helicobacter pylori 16S rRNA; test: qPCR test for gastric mucosal Helicobacter pylori (16S rRNA); format: in vivo, C57BL/6 mouse; conditions: for Gene expression level (Ct): 28 days, 16S rRNA vs 18SrRNA, control G3 13.80
Protocol: In order to compare the Helicobacter pylori eradiation effect between beta-caryophyllene and the antibiotics that are used for treatment of Helicobacter pylori infection, an animal test was performed using the test groups and doses shown in Table 1 below.
Each test substance was suspended in an excipient according to the dose and administered to each mouse once a day at the same time every day for a total of 28 days in a dose of 5 ml per kg mouse (C57BL/6 mouse) by oral gavage method.
After completion of the test, RNA was collected from the aseptically collected gastric mucosal tissue, and then synthesized into DNA to perform a PCR test. The marker gene used in this experiment was 16S rRNA, which is specifically found only in H. pylori and is not found in humans or mice. 18SrRNA was used as a loading control gene of the used DNA sample. The Ct value for each gene was obtained by reacting the fluorescent intercalator SYBR Green with the corresponding primer and DNA, and then calculated by relative quantification, and the results are shown in Table 4 below.

[7] = tested on: Helicobacter pylori; test: Immunohistochemical staining of gastric mucosa and submucosal layer with Helicobacter pylori-specific antibody; format: in vivo, Mongolian gerbils
Protocol: Mongolian gerbils were infected with a Helicobacter pylori strain (ATCC 49503) and then subjected to two weeks of acclimatization. To this end, the animals were fasted for 12 hours before and after inoculation with the Helicobacter pylori strain. 500 μl (1×10^9 CFU) of a bacterial suspension was prepared by suspending H. pylori in sterile physiological saline to a concentration of 2×10^9 CFU/ml and introduced directly into the stomach by using a feeding needle. For stable infection, the H. pylori strain was dispensed three times at 48 hour-intervals.
Beta-caryophyllene was administered directly into the gastrointestinal at doses of 100 mg/kg and 500 mg/kg for the low and high dose groups, respectively, for 12 weeks after two weeks after infection with H. pylori. The same amount of corn oil as the beta-caryophyllene was administered to each of the non-infected group and the infected group.
At weeks 0, 6 and 12 of the experiment, a paraffin block was prepared from with the stomach tissue of the infected animal model, and then stomach tissue slide sample with a thickness of 2 μm was prepared from the paraffin block using a microtome (Leica). For immunohistochemical staining, the slide was deparaffinized, heated with citrate buffer in a bath for 20 minutes, and then subjected to immunohistochemical staining using an IHC kit (Vectastain ABC kit, Vector). […]

## C=C1CC/C=C(\C)CC[C@@H]2[C@@H]1CC2(C)C [beta-caryophyllene]
[1]
  expression of flgE gene: decreased
  expression of flhA gene: decreased
[2]
  expression of virB2 gene: significantly decreased
  expression of virB4 gene: significantly decreased
  expression of virB8 gene: significantly decreased
[3]
  expression of dnaA gene: increased
  expression of dnaN gene: significantly decreased
  expression of holB gene: significantly decreased
  expression of polA gene: increased
[4]
  expression of alpA gene: decreased
  expression of alpB gene: decreased
  expression of babA gene: decreased
[5]
  minimum inhibitory concentration (MIC) against H. pylori: 1 mg
[6]; G6: 100 mg/kg/day
  Gene expression level (Ct): 11.99 Ct
[6]; G6: 100 mg/kg/day, not statistically significant
  decrease of Ct value compared to G3: 13.1%
[6]; G7: 200 mg/kg/day
  Gene expression level (Ct): 9.40 Ct
[6]; G7: 200 mg/kg/day, not statistically significant
  decrease of Ct value compared to G3: 31.9%
[6]; G8: 500 mg/kg/day
  Gene expression level (Ct): 5.71 Ct
[6]; G8: 500 mg/kg/day, statistically significant
  decrease of Ct value compared to G3: 58.6%
[7]; week 6, low dose (100 mg/kg) and high dose (500 mg/kg) groups vs infected group
  Helicobacter pylori infection in gastric mucosa and submucosal layer (IHC): significantly decreased
[7]; week 12, low dose (100 mg/kg) and high dose (500 mg/kg) groups vs infected group
  Helicobacter pylori detection in gastric mucosa (IHC): hardly detected
